Assay results taken from patent US8178506B2, “Oligomeric compounds and compositions for use in modulation of small non-coding RNAs” (Regulus Therapeutics Inc., priority 2003, dated 2012).

Assays:
Type in all cases: cell-based, human
Conditions in all cases: differentiating adipocytes transfected with oligomeric compound; Table 75
[1] = tested on: Glut4; assay: Glut4 mRNA expression in adipocytes (real-time PCR)
[2] = tested on: HSL; assay: HSL mRNA expression in adipocytes (real-time PCR)
[3] = tested on: adipocytes; assay: Triglyceride accumulation assay in adipocytes
[4] = tested on: aP2; assay: aP2 mRNA expression in adipocytes (real-time PCR)
[5] = tested on: PPARγ; assay: PPARγ mRNA expression in adipocytes (real-time PCR)

Row | Substance | GLUT4 mRNA [1] | HSL mRNA [2] | TG (triglyceride accumulation) [3] | aP2 mRNA [4] | PPAR gamma mRNA [5]
1 | 344340 (UGUCCGUGGUUCUACCCUGUGGUA; all 2'-MOE, all phosphorothioate, methylation of C and T or U not given here) [compound 344340] | 16 percentage of untreated control (UTC) | 47 percentage of untreated control (UTC) | 60 percentage of untreated control (UTC) | 82 percentage of untreated control (UTC) | 67 percentage of untreated control (UTC)
2 | 344341 (CACAUGGUUAGAUCAAGCACAA; anti-miR; all 2'-MOE, all phosphorothioate, methylation of C and T or U not given here) [compound 344341] | 14 percentage of untreated control (UTC) | 33 percentage of untreated control (UTC) | 50 percentage of untreated control (UTC) | 42 percentage of untreated control (UTC) | 49 percentage of untreated control (UTC)
3 | 344342 (AUGCUUUUUGGGGUAAGGGCUU; anti-miR; all 2'-MOE, all phosphorothioate, methylation of C and T or U not given here) [compound 344342] | 71 percentage of untreated control (UTC) | 87 percentage of untreated control (UTC) | 88 percentage of untreated control (UTC) | 88 percentage of untreated control (UTC) | 83 percentage of untreated control (UTC)
4 | 344343 (AUGCCCUUUCAUCAUUGCACUG; anti-miR; all 2'-MOE, all phosphorothioate, methylation of C and T or U not given here) [compound 344343] | 4 percentage of untreated control (UTC) | 22 percentage of untreated control (UTC) | 32 percentage of untreated control (UTC) | 25 percentage of untreated control (UTC) | 30 percentage of untreated control (UTC)
5 | 344611 (ACAUUUUUCGUUAUUGCUCUUGA; anti-miR; all 2'-MOE, all phosphorothioate, methylation of C and T or U not given here) [compound 344611] | 3 percentage of untreated control (UTC) | 31 percentage of untreated control (UTC) | 43 percentage of untreated control (UTC) | 34 percentage of untreated control (UTC) | 34 percentage of untreated control (UTC)
6 | 344612 (ACGGAAGGGCAGAGAGGGCCAG; anti-miR; all 2'-MOE, all phosphorothioate, methylation of C not given here) [compound 344612] | 40 percentage of untreated control (UTC) | 59 percentage of untreated control (UTC) | 69 percentage of untreated control (UTC) | 72 percentage of untreated control (UTC) | 62 percentage of untreated control (UTC)
7 | 344613 (ACACCAAUGCCCUAGGGGAUGCG; anti-miR; all 2'-MOE, all phosphorothioate, methylation of C and T or U not given here) [compound 344613] | 38 percentage of untreated control (UTC) | 46 percentage of untreated control (UTC) | 47 percentage of untreated control (UTC) | 55 percentage of untreated control (UTC) | 57 percentage of untreated control (UTC)
8 | 344614 (CCAGCAGCACCUGGGGCAGU; all 2'-MOE, all phosphorothioate, methylation of C and T or U not given here) [compound 344614] | 61 percentage of untreated control (UTC) | 71 percentage of untreated control (UTC) | 89 percentage of untreated control (UTC) | 78 percentage of untreated control (UTC) | 86 percentage of untreated control (UTC)
9 | 344615 (UCAACAAAAUCACUGAUGCUGGA; anti-miR; all 2'-MOE, all phosphorothioate, methylation of C and T or U not given here) [compound 344615] | 145 percentage of untreated control (UTC) | 154 percentage of untreated control (UTC) | 149 percentage of untreated control (UTC) | 166 percentage of untreated control (UTC) | 144 percentage of untreated control (UTC)
10 | 344616 (AGAGGUCGACCGUGUAAUGUGC; anti-miR; all 2'-MOE, all phosphorothioate, methylation of C and T or U not given here) [compound 344616] | 2 percentage of untreated control (UTC) | 23 percentage of untreated control (UTC) | 32 percentage of untreated control (UTC) | 26 percentage of untreated control (UTC) | 36 percentage of untreated control (UTC)
11 | 344617 (GACGGGUGCGAUUUCUGUGUGAGA; all 2'-MOE, all phosphorothioate, methylation of C and T or U not given here) [compound 344617] | 42 percentage of untreated control (UTC) | 55 percentage of untreated control (UTC) | 52 percentage of untreated control (UTC) | 59 percentage of untreated control (UTC) | 72 percentage of untreated control (UTC)
12 | 346685 (GGCGGAACUUAGCCACUGUGAA; all 2'-MOE, all phosphorothioate, methylation of C and T or U not given here) [compound 346685] | 233 percentage of untreated control (UTC) | 172 percentage of untreated control (UTC) | 164 percentage of untreated control (UTC) | 181 percentage of untreated control (UTC) | 138 percentage of untreated control (UTC)
13 | 346686 (CUUCAGUUAUCACAGUACUGUA; all 2'-MOE, all phosphorothioate, methylation of C and T or U not given here) [compound 346686] | 73 percentage of untreated control (UTC) | 80 percentage of untreated control (UTC) | 73 percentage of untreated control (UTC) | 83 percentage of untreated control (UTC) | 83 percentage of untreated control (UTC)
14 | 346687 (AGCAAGCCCAGACCGCAAAAAG; all 2'-MOE, all phosphorothioate, methylation of C not given here) [compound 346687] | 35 percentage of untreated control (UTC) | 53 percentage of untreated control (UTC) | 55 percentage of untreated control (UTC) | 56 percentage of untreated control (UTC) | 60 percentage of untreated control (UTC)
15 | 346688 (UAGUUGGCAAGUCUAGAACCA; all 2'-MOE, all phosphorothioate, methylation of C and T or U not given here) [compound 346688] | 12 percentage of untreated control (UTC) | 39 percentage of untreated control (UTC) | 33 percentage of untreated control (UTC) | 48 percentage of untreated control (UTC) | 55 percentage of untreated control (UTC)
16 | 346689 (CAUCAUUACCAGGCAGUAUUAGAG; all 2'-MOE, all phosphorothioate, methylation of C and T or U not given here) [compound 346689] | 45 percentage of untreated control (UTC) | 63 percentage of untreated control (UTC) | 59 percentage of untreated control (UTC) | 79 percentage of untreated control (UTC) | 64 percentage of untreated control (UTC)
17 | 346691 (GCAGAAGCAUUUCCACACAC; all 2'-MOE, all phosphorothioate, methylation of C and T or U not given here) [compound 346691] | 64 percentage of untreated control (UTC) | 69 percentage of untreated control (UTC) | 56 percentage of untreated control (UTC) | 69 percentage of untreated control (UTC) | 79 percentage of untreated control (UTC)
18 | 346692 (UAAACGGAACCACUAGUGACUUG; all 2'-MOE, all phosphorothioate, methylation of C and T or U not given here) [compound 346692] | 11 percentage of untreated control (UTC) | 18 percentage of untreated control (UTC) | 35 percentage of untreated control (UTC) | 26 percentage of untreated control (UTC) | 28 percentage of untreated control (UTC)
19 | 346693 (CCCUCUGGUCAACCAGUCACA; all 2'-MOE, all phosphorothioate, methylation of C and T or U not given here) [compound 346693] | 65 percentage of untreated control (UTC) | 66 percentage of untreated control (UTC) | 69 percentage of untreated control (UTC) | 77 percentage of untreated control (UTC) | 81 percentage of untreated control (UTC)
